Test results published in patent US20030124653A1, “Method of producing glycoproteins having reduced complex carbohydrates in mammalian cells” (NOVAZYME PHARMACEUTICALS, INC., priority 2001, published 2003).

Tested on: CHO cell line (GAA LEC clone R3.3) expressing rh-GAA
Test: Phosphorylation efficiency of rh-GAA from cultures containing mannosidase inhibitors ([32P] incorporation by GlcNAc phosphotransferase)
Type: cell-based, Chinese Hamster
Conditions: for [^32P] Phosphate Incorporation (cpm): conditioned media with 6 μg GAA; for effect on the phosphorylation reaction of rh-GAA: increasing amounts of inhibitor alone, versus GAA cultured without mannosidase inhibitors (FIG. 1)
Experimental: To determine whether mannosidase inhibitors can increase phosphorylation efficiency of recombinant human acid alpha glucosidase (rh-GAA), a CHO cell line (GAA LEC clone R3.3) expressing rh-GAA was grown in various conditions that contained different amounts of the following mannosidase the inhibitors: Kifunensin; Deoxymannojirimycin (DMJ); or combinations of both inhibitors. Conditioned media from each inhibitor condition containing 6 μg of GAA (based on GAA activity assay) was then incubated with purified bovine GlcNAc phosphotransferase (Pt'ase) and [^32P]UDP-GlcNAc. Subsequently, each phosphorylation reaction was loaded onto a concanavalin A-sepharose column to capture glycoproteins, e.g., rh-GAA. The concanavalin A-sepharose was washed and the resin was counted in a liquid scintillation counter to measure the ^32P incorporation, i.e., the extent of phosphorylation on rh-GAA. The results are summarized in Table 1 below and FIGS. 1 and 2.

SMILES	[^32P] Phosphate Incorporation (cpm) (0.5 mM inhibitor in culture)	[^32P] Phosphate Incorporation (cpm) (1.0 mM inhibitor in culture)	[^32P] Phosphate Incorporation (cpm) (1.75 mM inhibitor in culture)	[^32P] Phosphate Incorporation (cpm) (2.5 mM inhibitor in culture)	[^32P] Phosphate Incorporation (cpm) (5.0 mM inhibitor in culture)	effect on the phosphorylation reaction of rh-GAA	[^32P] Phosphate Incorporation (cpm) (0.5 μg/ml inhibitor in culture)	[^32P] Phosphate Incorporation (cpm) (1.0 μg/ml inhibitor in culture)	[^32P] Phosphate Incorporation (cpm) (2.5 μg/ml inhibitor in culture)	[^32P] Phosphate Incorporation (cpm) (5.0 μg/ml inhibitor in culture)	[^32P] Phosphate Incorporation (cpm) (10.0 μg/ml inhibitor in culture)
OC[C@H]1NC[C@@H](O)[C@@H](O)[C@@H]1O [DMJ only, deoxymannojirimycin]	3656	4500	4450	7258	6413	greatly enhance					
O=C1N[C@@H]2[C@@H](O)[C@@H](O)[C@H](O)[C@@H](CO)N2C1=O [Kifunensin only, kifunensine]						greatly enhance	6675	8585	7147	6717	7116
